This is an account of results in US20250169498A1, “SYNERGISTIC FUNGICIDAL INTERACTIONS OF A PICOLINAMIDE FUNGICIDE WITH OTHER FUNGICIDES AGAINST ASIAN SOYBEAN RUST” (CORTEVA AGRISCIENCE LLC, priority 2020, published 2025).

Assay [1] deals with Phakopsora pachyrhizi, PHAKPA. Put plainly: 3-day curative (3 DC) PHAKPA test on soybean seedlings. Type of assay: in vivo. Conditions: alone; for pest or weed control at 0.024 ppm: rate 0.024 ppm; for pest or weed control at 0.195 ppm: rate 0.195 ppm; for pest or weed control at 0.049 ppm: rate 0.049 ppm. Here is the method: (§1) Fungicides were evaluated vs. PHAKPA either alone or in binary or ternary mixtures by combining each fungicide with Compound I. Technical grades of materials were dissolved in 1.5 ml of acetone, which were then mixed with 13.5 ml of water containing 0.011% Tween 20. The fungicide solutions were applied onto soybean seedlings using an automated booth sprayer to run-off. All sprayed plants were allowed to air dry prior to further handling. Soybean plants (variety Williams 82) were grown in soil-less Metro mix, with one plant per pot. Two weeks old seedlings were used for testing. Plants were inoculated either 3 days prior to or 1 day after fungicide treatments. Plants were incubated for 24 h in a dark dew room at 22° C. and 100% RH then transferred to a growth room at 23° C. for disease to develop. Once disease fully expressed on untreated plants, disease severity was assessed on the sprayed monofoliate leaves.
(§2) Synergy factors were calculated using Colby's method. The expected disease control (% DC exp) of a mixture consisting of two or three components can be predicted by the following formula: […]
(§3) where A, B, C are the percent disease control given by the individual fungicide component at the defined rate in the mixture. If the ratio (synergy factor) between the observed disease control of the mixture (% DCobs) and the expected disease control of the mixture (% DCexp) is greater than 1, synergistic interaction is present.
(§4) When disease fully developed on the control plants, infection levels were assessed on treated plants visually and scored on a scale of 0 to 100 percent. Percentage of disease control was then calculated using the ratio of disease on treated plants relative to control plants. […]

The subject of assay [2] is Phakopsora pachyrhizi, PHAKPA. Put plainly: 1-day protectant (1 DP) PHAKPA test on soybean seedlings. In kind it is in vivo. The settings on record: alone; for pest or weed control at 0.006 ppm: rate 0.006 ppm; for pest or weed control at 0.024 ppm: rate 0.024 ppm; for pest or weed control at 0.0015 ppm: rate 0.0015 ppm; for pest or weed control at 0.049 ppm: rate 0.049 ppm; for pest or weed control at 12.5 ppm: rate 12.5 ppm. The method, then: as §1, §2, §3, §4

The mark [3] stands for this setting: Phakopsora pachyrhizi, read-out: % DC obs.
[4] abbreviates: Phakopsora pachyrhizi, rate 0.39 ppm, read-out: % DC obs.
The mark [5] stands for this setting: Phakopsora pachyrhizi, rate 0.78 ppm, read-out: % DC obs.
The mark [6] stands for this setting: Phakopsora pachyrhizi, rate 3.125 ppm, read-out: % DC obs.
Setting [7] is: Phakopsora pachyrhizi, rate 0.195 ppm, read-out: % DC obs.
[8] abbreviates: Phakopsora pachyrhizi, rate 37.5 ppm, read-out: % DC obs.
The mark [9] stands for this setting: Phakopsora pachyrhizi, rate 75 ppm, read-out: % DC obs.
Setting [10] is: Phakopsora pachyrhizi, rate 0.19 ppm, read-out: % DC obs.
The mark [11] stands for this setting: Phakopsora pachyrhizi, rate 200 ppm, read-out: % DC obs.
The mark [12] stands for this setting: Phakopsora pachyrhizi, rate 0.012 ppm, read-out: % DC obs.

Regarding `Fc1ccc([C@]2(Cn3cncn3)O[C@H]2c2ccccc2Cl)cc1` (racemic) [Epoxiconazole, rel-1-[[(2R,3S)-3-(2-chlorophenyl)-2-(4-fluorophenyl)oxiranyl]methyl]-1H-1,2,4-triazole], the pest or weed control at 0.024 ppm in assay [1] (setting [3]) came out at 0%. Also, in assay [2] (setting [3]), the pest or weed control at 0.006 ppm came out at 3.7% and the pest or weed control at 0.024 ppm amounted to 48.1%.
For the compound `CO/C=C(/C(=O)OC)c1ccccc1Oc1cc(Oc2ccccc2C#N)ncn1` [Azoxystrobin, methyl (αE)-2-[[6-(2-cyanophenoxy)-4-pyrimidinyl]oxy]-α-(methoxymethylene)benzeneacetate], the pest or weed control at 0.39 ppm in assay [1] (setting [4]) was determined as 31.7%. For the same compound, the pest or weed control at 0.024 ppm in assay [2] (setting [3]) turned out to be 22.2%. Moreover, in assay [2] (Phakopsora pachyrhizi, rate 0.098 ppm, read-out: % DC obs), the pest or weed control at 0.098 ppm turned out to be 50.4%.
As for `Cn1cc(C(=O)Nc2cccc3c2C2CCC3C2=C(Cl)Cl)c(C(F)F)n1` (stereo not shown) [Benzovindiflupyr, N-[11-(dichloromethylidene)-3-tricyclo[6.2.1.0]undeca-2(7),3,5-trienyl]-3-(difluoromethyl)-1-methylpyrazole-4-carboxamide], the “% DC obs” value came out at 11.7% in assay [1] (rate 0.78 ppm), 3.7% in assay [2] (rate 0.195 ppm), 11.1% in assay [2] (rate 0.78 ppm) and 80.0% in assay [2] (rate 3.125 ppm).
With `Cn1cc(C(=O)Nc2ccc(F)cc2-c2ccc(Cl)c(Cl)c2)c(C(F)F)n1` [Bixafen, N-(3′,4′-dichloro-5-fluoro[1,1′-biphenyl]-2-yl)-3-(difluoromethyl)-1-methyl-1H-pyrazole-4-carboxamide], the pest or weed control at 0.78 ppm in assay [1] (setting [5]) stood at 0%. In addition, the pest or weed control at 3.125 ppm in assay [1] (setting [6]) came out at 0%. The pest or weed control at 0.195 ppm in assay [2] (setting [7]) was found to be 0%.
Consider `N#Cc1c(Cl)c(Cl)c(Cl)c(C#N)c1Cl` [Chlorothalonil, tetrachlorisophthalonitrile], for which the pest or weed control at 37.5 ppm turned out to be 4.6% in assay [1] (setting [8]) and 0% in assay [2] (setting [8]). The values for the pest or weed control at 75 ppm in assay [1] (setting [9]) and in assay [2] (setting [9]) were 13.7% and 87%, respectively. The pest or weed control at 150 ppm in assay [1] (Phakopsora pachyrhizi, rate 150 ppm, read-out: % DC obs) amounted to 18.3%.
In the case of `CCC(=O)Oc1c(OC)ccnc1C(=O)N[C@@H](C)C(=O)O[C@@H](C)[C@@H](C)c1ccccc1C` [Compound I], the pest or weed control at 1.56 ppm in assay [1] (Phakopsora pachyrhizi, rate 1.56 ppm, read-out: % DC obs) turned out to be 77.6%. For the same compound, the pest or weed control at 0.39 ppm in assay [2] (setting [4]) was found to be 79.2%.
In the case of `[Cl-].[Cu+2].[Cu+2].[OH-].[OH-].[OH-]` [Cu Oxychloride], the “% DC obs” value in assay [1] (rate 200 ppm) came out at 13.7%.
Turning to `CC(C1CC1)C(O)(Cn1cncn1)c1ccc(Cl)cc1` (stereo not shown) [Cyproconazole, 2-(4-chlorophenyl)-3-cyclopropyl-1-(1,2,4-triazol-1-yl)butan-2-ol], in assay [2] (setting [3]), the pest or weed control at 0.0015 ppm stood at 11.1%, the pest or weed control at 0.006 ppm was found to be 3.7% and the pest or weed control at 0.024 ppm was 11.1%.
Regarding `CC1COC(Cn2cncn2)(c2ccc(Oc3ccc(Cl)cc3)cc2Cl)O1` (stereo not shown) [Difenoconazole, 1-[[2-[2-chloro-4-(4-chlorophenoxy)phenyl]-4-methyl-1,3-dioxolan-2-yl]methyl]-1,2,4-triazole], the results for the pest or weed control at 0.19 ppm in assay [1] (setting [10]) and in assay [2] (setting [10]) were 18.3% and 41.9%, respectively.
As for `CC(Cc1ccc(C(C)(C)C)cc1)CN1C[C@@H](C)O[C@@H](C)C1` (stereo partly drawn) [Fenpropimorph, (2S,6R)-4-[3-(4-tert-butylphenyl)-2-methylpropyl]-2,6-dimethylmorpholine], the pest or weed control at 100 ppm in assay [1] (Phakopsora pachyrhizi, rate 100 ppm, read-out: % DC obs) came to 36.4%. Moreover, in assay [1] (setting [11]), the pest or weed control at 200 ppm came out at 61.9%.
As for `Cn1cc(C(=O)Nc2ccccc2-c2cc(F)c(F)c(F)c2)c(C(F)F)n1` [Fluxapyroxad, 3-(difluoromethyl)-1-methyl-N-[2-(3,4,5-trifluorophenyl)phenyl]pyrazole-4-carboxamide], the figures for the pest or weed control at 0.195 ppm in assay [1] (setting [3]) and in assay [2] (setting [7]) were 0% and 3.7%, respectively. For the same compound, the figures for the pest or weed control at 3.125 ppm in assay [1] (setting [6]) and in assay [2] (setting [6]) were 17.6% and 80%, respectively. Besides, the pest or weed control at 0.78 ppm in assay [2] (setting [5]) stood at 11.1%.
As to `CC(O)(Cn1cncn1)c1ccc(Oc2ccc(Cl)cc2)cc1C(F)(F)F` (stereo not shown) [Mefentrifluconazole, 2-[4-(4-chlorophenoxy)-2-(trifluoromethyl)phenyl]-1-(1,2,4-triazol-1-yl)propan-2-ol], the pest or weed control at 0.049 ppm worked out at 43.7% in assay [1] (setting [3]) and 9.9% in assay [2] (setting [3]). In addition, the results for the pest or weed control at 0.195 ppm in assay [1] (setting [3]) and in assay [2] (setting [7]) were 69.1% and 87%, respectively.
`CNC(=O)/C(=N/OC)c1ccccc1Oc1ccccc1` [Metominostrobin, (2E)-2-methoxyimino-N-methyl-2-(2-phenoxyphenyl)acetamide]: the pest or weed control at 0.78 ppm in assay [1] (setting [5]) is 33.3%; in assay [2] (setting [5]), 0%. The pest or weed control at 3.125 ppm amounted to 67.6% in assay [1] (setting [6]) and 11.1% in assay [2] (setting [6]). Further, the pest or weed control at 12.5 ppm in assay [2] (setting [3]) came to 64.4%.
Take `CO/C=C(/C(=O)OC)c1ccccc1COc1cccc(C(F)(F)F)n1` [Picoxystrobin, methyl (E)-3-methoxy-2-[2-[[6-(trifluoromethyl)pyridin-2-yl]oxymethyl]phenyl]prop-2-enoate]: the pest or weed control at 0.049 ppm in assay [1] (setting [3]) turned out to be 18.5%. The pest or weed control at 0.195 ppm in assay [1] (setting [3]) is 14.8%; in assay [2] (setting [7]) it was 0%. In addition, the pest or weed control at 0.78 ppm in assay [1] (setting [5]) was determined as 53.3%; in assay [2] (setting [5]), 80%. Also, the results for the “% DC obs” value in assay [2] (rate 0.195 ppm) and in assay [2] (rate 0.78 ppm) were 0% and 80%, respectively.
For `CCCC1COC(Cn2cncn2)(c2ccc(Cl)cc2Cl)O1` (stereo not shown) [Propiconazole, 1-[[2-(2,4-dichlorophenyl)-4-propyl-1,3-dioxolan-2-yl]methyl]-1,2,4-triazole], in assay [1] (setting [3]), the pest or weed control at 0.049 ppm came to 9.2% and the pest or weed control at 0.195 ppm was 59.1%. The pest or weed control at 0.195 ppm in assay [2] (setting [7]) amounted to 19.9%. In addition, the pest or weed control at 0.78 ppm in assay [2] (setting [5]) turned out to be 78%.
Take `OC(Cc1ccccc1Cl)(Cn1[nH]cnc1=S)C1(Cl)CC1` (stereo not shown) [Prothioconazole, 2-[2-(1-chlorocyclopropyl)-3-(2-chlorophenyl)-2-hydroxypropyl]-1,2-dihydro-3H-1,2,4-triazole-3-thione]: in assay [2] (setting [3]), the pest or weed control at 0.0015 ppm worked out at 0% and the pest or weed control at 0.006 ppm came out at 7.4%.
With `CON(C(=O)c1cn(C)nc1C(F)F)C(C)Cc1c(Cl)cc(Cl)cc1Cl` (stereo not shown) [Pydiflumetofen, 3-(difluoromethyl)-N-methoxy-1-methyl-N-[1-(2,4,6-trichlorophenyl)propan-2-yl]pyrazole-4-carboxamide], in assay [2] (setting [3]), the pest or weed control at 12.5 ppm was found to be 0%. The pest or weed control at 50 ppm in assay [2] (Phakopsora pachyrhizi, rate 50 ppm, read-out: % DC obs) was 15.3%. Also, the pest or weed control at 200 ppm in assay [2] (setting [11]) was found to be 85.4%.
`CC(C)(C)C(O)(CCc1ccc(Cl)cc1)Cn1cncn1` (stereo not shown) [Tebuconazole, 1-(4-chlorophenyl)-4,4-dimethyl-3-(1,2,4-triazol-1-ylmethyl)pentan-3-ol]: the pest or weed control at 0.0015 ppm in assay [1] (Phakopsora pachyrhizi, rate 0.0015 ppm, read-out: % DC obs) came to 0%; in assay [2] (setting [3]), 0%. In addition, the pest or weed control at 0.006 ppm in assay [1] (Phakopsora pachyrhizi, rate 0.006 ppm, read-out: % DC obs) amounted to 0%; in assay [2] (setting [3]), 11.1%. The pest or weed control at 0.024 ppm in assay [1] (setting [3]) is 11.7%.
`FC(F)C(F)(F)OCC(Cn1cncn1)c1ccc(Cl)cc1Cl` (stereo not shown) [Tetraconazole, 1-[2-(2,4-dichlorophenyl)-3-(1,1,2,2-tetrafluoroethoxy)propyl]-1,2,4-triazole]: the pest or weed control at 0.012 ppm in assay [1] (setting [12]) was 13.7%; in assay [2] (setting [12]) it was 0%. Moreover, the pest or weed control at 0.049 ppm came out at 13.7% in assay [1] (setting [3]) and 0% in assay [2] (setting [3]). The pest or weed control at 0.195 ppm in assay [2] (setting [7]) was 90%.
With `CO/N=C(/C(=O)OC)c1ccccc1CO/N=C(\C)c1cccc(C(F)(F)F)c1` [Trifloxystrobin, methyl (2E)-2-methoxyimino-2-[2-[[(E)-1-[3-(trifluoromethyl)phenyl]ethylideneamino]oxymethyl]phenyl]acetate], the pest or weed control at 0.195 ppm in assay [1] (setting [3]) was 18.3%.
Consider “zinc manganese(2+)N-[2-(sulfidocarbothioylamino)ethyl]carbamodithioate [Mancozeb]”, for which the “% DC obs” value in assay [1] (rate 0.19 ppm) amounted to 14.8%; in assay [1] (rate 0.78 ppm), 14.8%; in assay [1] (rate 3.125 ppm), 0%; in assay [1] (rate not given), 0%; in assay [2] (rate 0.19 ppm), 3.8%; in assay [2] (rate 0.78 ppm), 0%. Moreover, in assay [2] (rate 3.125 ppm), the “% DC obs” value came out at 0%.
